Reference: patent publication US7671023B2 (Amylin Pharmaceuticals, Inc., priority 2005, dated 2010)

Key:
test animals = experiment: amylin activity in vivo in treated test animals (hyperlactemia followed by hyperglycemia); settings: e.g., provoking marked hyperlactemia followed by hyperglycemia
mice [1] = experiment: marble burying; type: in vivo, mouse; settings: for reduction in marble burying, statistical significance: amylin at 10 mg/kg, buspirone at 20 mg/kg, P<0.05; for number of marbles buried in 30 minutes: injected 15-30 minutes prior to test, rat amylin 0.1, 1.0 or 10 mg/kg, buspirone 20/kg, FIG. 3
Experimental: (§1) These specific behavioral tests are known to be sensitive to anxiolytic, antidepressant, or antipsychotic drugs.
Marble burying is used as a model for both anxiety and obsessive-compulsive disorder. See, for example, Chaki et al. (2003) J. Pharmacol. Exp. Ther. 304:818-826. Anxiolytics suppress marble burying activity. […] Mice were then placed individually in clean cages containing 5-cm of hard wood bedding and 20 marbles spaced evenly in rows of five. The number of marbles buried in 30 minutes was recorded. […] Buspirone is a partial 5-HT1A agonist and an known anxiolytic agent.

mice [2] = experiment: prepulse inhibition (PPI) test; type: in vivo, mouse; settings: amylin at 10 mg/kg; haloperidol 1 mg/kg; all prepulse levels tested (74, 78, and 82 dB); 120 dB stimulus; FIG. 5
Description: as §1
The prepulse inhibition (PPI) test measures the reflex response to externally applied auditory stimulation (acoustic startle response) and is related to the deficiency in sensory-motor gating capacity seen in schizophrenia. The acoustic startle reflex is a very basic response to strong exteroceptive stimuli and is widely used to assess sensorimotor reactivity in animals and humans. A weak auditory stimulus (prepulse, 74-82 dB) given prior to the strong acoustic stimulus (120 dB) blunts the startle response. This blunting of the startle response is referred to as prepulse inhibition. […] Antipsychotics increase the ability of the prepulse stimulus to blunt the startle response to the strong stimulus. Some psychotomimetic agents, such as phencyclidine (PCP) and ketamine, can actually reduce the percent prepulse inhibition and stimulate a psychotic-like state in animals, which can be antagonized by antipsychotic agents.
The mice were placed into an animal holder and the holder placed onto a transducer platform in an acoustic chamber. A weak auditory stimulus (prepulse) of 74, 78 and 82 dB was given prior to the strong acoustic stimulus (120 dB). The amount of the animal's “reaction” to the strong stimulus was recorded. […]

[3] = test system: Male, Sprague-Dawley rats; experiment: sugar withdrawal paradigm with restraint stress (stress-induced feeding); type: in vivo; settings: rat amylin 300 μg/kg/d by osmotic pump
Experimental: Male, Sprague-Dawley® rats were submitted to a sugar withdrawal paradigm and observed for effects of stress on sugar intake. […] All rats were provided with ad libitum access to standard chow, water, and a 30% sucrose drink. Subsequently, the sucrose drink was removed and half of the rats were subjected, daily, to 3 h of mild restraint stress for 3 successive days. After 3 days, sucrose was provided and its daily average consumption was measured over 4 days. Chow intake was also measured over the 3 days of withdrawal and stress and over the following 4 days when sucrose was re-introduced. No restraint was applied during the 4 days of sucrose re-introduction. Results of this assay are shown in FIG. 1 where * is P<0.05 by ANOVA and Fisher LSD post-hoc analyses.

mice [4] = experiment: stress-induced hyperthermia (SIH) assay; type: in vivo, mouse
Description: as §1
Body temperature and emotional state are closely related in humans, and stress-induced hyperthermia (SIH) in mice is considered to have predictive validity for certain human anxiety/stress disorders. The SIH assay assesses the effect of anxiolytics or test agents on stress-induced hyperthermia and measures the intrinsic effects of these drugs on core body temperature of the animal. See, for example, Zethof et al. (1994) Physiol. Behav. […] Anxiolytics blunt the increase in body temperature, or hyperthermic response, following stress exposure. […] Mice were subjected to two sequential rectal temperature measurements ten minutes apart. The stress from the first measurement induces hyperthermia which was measured by the second temperature measurement. The difference between the two temperatures (ΔT) was the stress-induced hyperthermia.

mice [5] = experiment: forced swim test (FST); type: in vivo, mouse; settings: delivered continuously for two weeks by subcutaneous osmotic pumps; 5 minute trial session; FIG. 4
Description: as §1
The forced swim test (FST) is a commonly used paradigm to evaluate antidepressant activity of drugs. This test is based on measurement of the animal's floating time in a tank filled with water. When rats or mice are forced to swim in a deep cylinder with tepid water they become nearly immobile and cease trying to escape. This characteristic immobile posture is thought to reflect a depressive-like state and is readily influenced by a wide variety of antidepressants. See, for example, Hédou et al. (2001) Pharmacol., Biochem. Behav. […] Antidepressants decrease the immobility time in the FST. Rat amylin or vehicle was delivered continuously for two weeks to mice by subcutaneously implanted osmotic pumps prior to the FST. On day one, the mice were placed in the water tank for a 15 minute pre-swim session. On day two, the mice were placed back into the water tank for assessment of climbing, swimming, and immobility over a 5 minute trial session.

mice [6] = experiment: phencyclidine (PCP)-induced locomotion test; type: in vivo, mouse
Description: as §1
The PCP-induced locomotion test is used with the open field activity chambers and measures locomotion, rearing, and stereotypic activity under amphetamine/PCP-induced conditions. The test has predictive validity for some antipsychotic drugs that normalize the hyperactivity and stereotypic behavior seen with amphetamine and PCP. See, for example, Williams et al. (2006) Prog. Neuropsychopharmacol. Biol. Psychiatry 30:239-243. […] The animals were then placed in the center of an open field and activity was recorded for 60 minutes. […] CZP is an atypical, second generation antipsychotic drug has a mixed receptor profile, including the dopamine receptor.

[7] = test system: Adult, male Sprague-Dawley rats; experiment: weight gain induced by clozapine; type: in vivo; settings: rat amylin 10 μg/kg/day co-administered with clozapine […], osmotic pump, 4 weeks; FIG. 7B

Question: How did the “amylin activity in vivo” value (test animals) turn out when `CC[C@H](C)[C@H](NC(=O)[C@@H]1CCCN1C(=O)CNC(=O)[C@H](Cc1ccccc1)NC(=O)[C@H](CC(N)=O)NC(=O)[C@H](CC(N)=O)NC(=O)[C@H](CO)NC(=O)[C@H](CO)NC(=O)[C@H](Cc1c[nH]cn1)NC(=O)[C@@H](NC(=O)[C@H](CC(C)C)NC(=O)[C@H](Cc1ccccc1)NC(=O)[C@H](CC(N)=O)NC(=O)[C@H](C)NC(=O)[C@H](CC(C)C)NC(=O)[C@H](CCCNC(=N)N)NC(=O)[C@H](CCC(N)=O)NC(=O)[C@@H](NC(=O)[C@H](C)NC(=O)[C@@H]1CSSC[C@H](NC(=O)[C@@H](N)CCCCN)C(=O)N[C@@H](CC(N)=O)C(=O)N[C@@H]([C@@H](C)O)C(=O)N[C@@H](C)C(=O)N[C@@H]([C@@H](C)O)C(=O)N1)[C@@H](C)O)C(C)C)C(=O)N[C@@H](CC(C)C)C(=O)N1CCC[C@H]1C(=O)N1CCC[C@H]1C(=O)N[C@H](C(=O)N[C@@H](CC(N)=O)C(=O)N[C@H](C(=O)NCC(=O)N[C@@H](CO)C(=O)N[C@@H](CC(N)=O)C(=O)N[C@H](C(=O)N[C@@H](Cc1ccc(O)cc1)C(N)=O)[C@@H](C)O)C(C)C)[C@@H](C)O` [^25,28,29Pro-h-amylin, reference compound] was run?
Answer: show amylin activity in vivo

Question: For `O=C1CC2(CCCC2)CC(=O)N1CCCCN1CCN(c2ncccn2)CC1` [buspirone, reference compound], which “reduction in marble burying, statistical significance” value (mice [1]) is on record?
Answer: statistically significant

Question: What about the “number of marbles buried in 30 minutes” value (mice [1]) of the same molecule?
Answer: reduced the number of marbles buried

Question: `O=C(CCCN1CCC(O)(c2ccc(Cl)cc2)CC1)c1ccc(F)cc1` [halperidol, haloperidol, reference compound] was tested. Which “percent of prepulse inhibition” value (mice [2]) did it give?
Answer: significantly increased the percent of prepulse inhibition

Question: “KCNTATCATQRLANFLVRSSNNLGPVLPPTNVGSNTY (listed as Rattus sp.) [rat amylin, 37-amino acid polypeptide hormone; rat species variant of amylin]” was tested. Which “average sucrose to chow consumption ratio (as % of baseline)” value ([3]; 3 h mild restraint stress daily for 3 days, sucrose intake over following 4 days, FIG. 1A) did it give?
Answer: prevents the increase in the average sucrose to chow consumption ratio

Question: And the “chow consumption (stress-induced decrease)” value ([3]; restraint stress, FIG. 1B)?
Answer: protects against this behavioral response to stress

Question: What about the “SIH response (ΔT)” value (mice [4]; acute, 60 minutes before the assay, rat amylin 0.1, 1.0 or 10 mg/kg, chlordiazepoxide 10 mg/kg, FIG. 2) of the same molecule?
Answer: blunted the SIH response

Question: What about the “SIH response (ΔT), chronic infusion” value (mice [4]; subcutaneously implanted pumps, amylin 300 μg/kg/d, CDP 10 mg/kg/d, at both 1 week and 4 weeks of administration) of the same molecule?
Answer: significantly blunted the SIH response

Question: What about the “reduction in marble burying, statistical significance” value (mice [1]) of the same molecule?
Answer: statistically significant

Question: And the “number of marbles buried in 30 minutes” value (mice [1])?
Answer: reduced the number of marbles buried

Question: What about the “time spent in the immobile state” value (mice [5]) of the same molecule?
Answer: significantly reduced the time spent in the immobile state

Question: What about the “percent of prepulse inhibition” value (mice [2]) of the same molecule?
Answer: significantly increased the percent of prepulse inhibition

Question: And the baseline activity (mice [6]; agent alone, without PCP)?
Answer: did not affect baseline activity

Question: And the “rearing activity and PCP-induced rearing activity” value (mice [6]; open field, with and without 5 mg/kg PCP)?
Answer: reduced rearing activity and PCP-induced rearing activity

Question: And the total distance traveled (mice [6]; rat amylin 0.1, 1.0 or 10 mg/kg or 3 mg/kg clozapine 15-30 minutes prior to 5 mg/kg PCP, total, central, and peripheral, 60 minutes, FIG. 6)?
Answer: significantly reduced the total distance traveled

Question: And the “weight gain observed with clozapine alone” value [7]?
Answer: prevented the weight gain

Question: How did the “amylin activity in vivo” value (test animals) turn out when “^28Pro-h-amylin (KCNTATCATQRLANFLVHSSNNFGAILPSTNVGSNTY)” was run?
Answer: show amylin activity in vivo

Question: For “des-^1Lys-h-amylin (CNTATCATQRLANFLVHSSNNFGAILSSTNVGSNTY)”, which “amylin activity in vivo” value (test animals) is on record?
Answer: show amylin activity in vivo

Question: For “des-^1Lys^18Arg^25,28Pro-h-amylin (CNTATCATQRLANFLVRSSNNFGPILPSTNVGSNTY)”, which “amylin activity in vivo” value (test animals) is on record?
Answer: show amylin activity in vivo
